For 32 molecules, AC50 results are on record in US20230104936A1, “TRPML MODULATORS” (Casma Therapeutics, Inc., priority 2019, published 2023).

Bounds are passed on as bounds.

This test concerns TFEB. In words: TFEB nuclear translocation assay, HeLa wt cells. It is filed as cell-based. The settings on record: Homo sapiens, HeLa, 2 h, 2 hrs compound treatment, Table 1 does not say HeLa wt or TRPML1 KO. The procedure, abridged: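 AC50 derived from the ratio of nuclear to perinuclear ring (−5 μm) anti-TFEB immunofluorescence, imaged at ×20 over four fields per well. HeLa wt or TRPML1 KO cells were exposed to compounds for 2 hrs at 37° C, then PFA-fixed and counterstained with Hoechst.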
`CS(=O)(=O)c1ccc(S(=O)(=O)Nc2ccccc2N2CCC3(CC2)CN(C(=O)OC2CCOC2)c2cc(F)ccc23)cc1` (centres unmarked) [Compound A-469, oxolan-3-yl 6-fluoro-1′-[2-(4-methanesulfonylbenzenesulfonamido)phenyl]-1,2-dihydrospiro[indole-3,4′-piperidine]-1-carboxylate]: the AC50 (as a rule, the midpoint of the concentration-response curve, whichever way the signal moves) was ≤ 2 µM.

For `CN(C)S(=O)(=O)c1ccc(S(=O)(=O)Nc2ccccc2N2CCC(C(=O)C(C)(C)C)CC2)cc1` [Compound A-470, N4-{2-[4-(2,2-dimethylpropanoyl)piperidin-1-yl]phenyl}-N1,N1-dimethylbenzene-1,4-disulfonamide], the AC50 was ≤ 2 µM.

`CN(C)S(=O)(=O)c1ccc(S(=O)(=O)Nc2ccccc2N2CCC(O)(C(C)(C)C)CC2)cc1` [Compound A-471, N1-(2-(4-(tert-butyl)-4-hydroxypiperidin-1-yl)phenyl)-N4,N4-dimethylbenzene-1,4-disulfonamide]: the AC50 is ≤ 2 µM.

For `CN1CC2(CCN(c3ccccc3NS(=O)(=O)c3ccc(S(=O)(=O)N(C)C)cc3)C(=O)C2)c2ccc(F)cc21` (centres unmarked) [Compound A-472, N4-(2-{6-fluoro-1-methyl-2′-oxo-1,2-dihydrospiro[indole-3,4′-piperidin]-1′-yl}phenyl)-N1,N1-dimethylbenzene-1,4-disulfonamide], the AC50 was ≤ 2 µM.

As to `CN(C)S(=O)(=O)c1ccc(S(=O)(=O)Nc2ccccc2N2CCC3(CC2)OC(=O)c2cc(F)cnc23)cc1` [Compound A-473, N4-(2-{3-fluoro-5-oxo-5H-spiro[furo[3,4-b]pyridine-7,4′-piperidin]-1′-yl}phenyl)-N1,N1-dimethylbenzene-1,4-disulfonamide], the AC50 is 2.01 to 8 µM.

On to `CC(c1ccccc1N1CCN(C(=O)C(C)(C)C)CC1)S(=O)(=O)c1ccc(S(=O)(=O)N(C)C)cc1` (centres unmarked) [Compound A-474, 4-(1-{2-[4-(2,2-dimethylpropanoyl)piperazin-1-yl]phenyl}ethanesulfonyl)-N,N-dimethylbenzene-1-sulfonamide], for which the AC50 is 2.01 to 8 µM.

As to `CCC1(N2CCCCC2)CCN(c2ccccc2NS(=O)(=O)c2ccc(S(=O)(=O)N(C)C)cc2)CC1` [Compound A-475, N4-(2-{4′-ethyl-[1,4′-bipiperidin]-1′-yl}phenyl)-N1,N1-dimethylbenzene-1,4-disulfonamide], the AC50 is ≤ 2 µM.

In turn, `CN(C)S(=O)(=O)c1ccc(S(=O)(=O)Nc2ccccc2N2CCN(C(=O)C3(C)CCCO3)CC2)cc1` (centres unmarked) [Compound A-476, N1,N1-dimethyl-N4-{2-[4-(2-methyloxolane-2-carbonyl)piperazin-1-yl]phenyl}benzene-1,4-disulfonamide] gave an AC50 of 2.01 to 8 µM.

Turning to `CN(C)S(=O)(=O)c1ccc(S(=O)(=O)Nc2ccccc2N2CCN(C(=O)C3(C)CC(F)(F)C3)CC2)cc1` [Compound A-478, N4-{2-[4-(3,3-difluoro-1-methylcyclobutanecarbonyl)piperazin-1-yl]phenyl}-N1,N1-dimethylbenzene-1,4-disulfonamide], the AC50 fell in the range of 2.01 to 8 µM.

For the molecule `CN(C)S(=O)(=O)c1ccc(S(=O)(=O)Nc2ccccc2N2CCC(C3CC3(F)F)CC2)cc1` (centres unmarked) [Compound A-479, N4-{2-[4-(2,2-difluorocyclopropyl)piperidin-1-yl]phenyl}-N1,N1-dimethylbenzene-1,4-disulfonamide], the AC50 was ≤ 2 µM.

The molecule `CN(C)S(=O)(=O)c1ccc(S(=O)(=O)Nc2ccccc2N2CCCN(C(=O)C(C)(C)C)CC2)cc1` [Compound A-480, N4-{2-[4-(2,2-dimethylpropanoyl)-1,4-diazepan-1-yl]phenyl}-N1,N1-dimethylbenzene-1,4-disulfonamide] gave an AC50 of 2.01 to 8 µM.

With `CS(=O)(=O)c1ccc(S(=O)(=O)Nc2ccccc2N2CCC3(CC2)COCc2ccccc23)cc1` [Compound A-481, N-(2-{1,3-dihydrospiro[2-benzopyran-4,4′-piperidin]-1′-yl}phenyl)-4-methanesulfonylbenzene-1-sulfonamide], the AC50 is ≤ 2 µM.

Regarding `NS(=O)(=O)c1ccc(S(=O)(=O)Nc2ccccc2N2CCC(c3ccc(Cl)cc3F)CC2)cc1` [Compound A-482, N1-{2-[4-(4-chloro-2-fluorophenyl)piperidin-1-yl]phenyl}benzene-1,4-disulfonamide], the AC50 fell in the range of 2.01 to 8 µM.

As for `COCC1(C)CCN(c2ccccc2NS(=O)(=O)c2ccc(C(C)(C)C)cc2)CC1` [Compound A-483, 4-tert-butyl-N-{2-[4-(methoxymethyl)-4-methylpiperidin-1-yl]phenyl}benzene-1-sulfonamide], the AC50 was ≤ 2 µM.

`CN(C)S(=O)(=O)c1ccc(S(=O)(=O)Nc2ccccc2N2CCCN(C3CC3)CC2)cc1` [Compound A-484, N4-[2-(4-cyclopropyl-1,4-diazepan-1-yl)phenyl]-N1,N1-dimethylbenzene-1,4-disulfonamide] displayed an AC50 of 2.01 to 8 µM.

For the molecule `CC(C)(C)C(=O)N1CCN(c2ccccc2NS(=O)(=O)Cc2cccc(Br)c2)CC1` [Compound A-485, 1-(3-bromophenyl)-N-{2-[4-(2,2-dimethylpropanoyl)piperazin-1-yl]phenyl}methanesulfonamide], the AC50 fell in the range of 2.01 to 8 µM.

Turning to `Cc1ccc(CS(=O)(=O)Nc2ccccc2N2CCN(C(=O)C(C)(C)C)CC2)cc1C` [Compound A-486, 1-(3,4-dimethylphenyl)-N-{2-[4-(2,2-dimethylpropanoyl)piperazin-1-yl]phenyl}methanesulfonamide], the AC50 is 2.01 to 8 µM.

`CN(C)S(=O)(=O)c1ccc(S(=O)(=O)Nc2ccccc2N2CCN(C(=O)C34CCCCC3C4)CC2)cc1` (centres unmarked) [Compound A-487, N4-[2-(4-{bicyclo[4.1.0]heptane-1-carbonyl}piperazin-1-yl)phenyl]-N1,N1-dimethylbenzene-1,4-disulfonamide]: the AC50 was ≤ 2 µM.

`CC(C)(C)C(=O)N1CCN(c2ccccc2NS(=O)(=O)Cc2ccc(Br)cc2F)CC1` [Compound A-488, 1-(4-bromo-2-fluorophenyl)-N-{2-[4-(2,2-dimethylpropanoyl)piperazin-1-yl]phenyl}methanesulfonamide] came in with an AC50 of 8.01 to 9.99 µM.

Molecule `COCC1(C)CCN(c2ccccc2NS(=O)(=O)c2ccc(CC(C)(C)C)cc2)CC1` [Compound A-489, 4-(2,2-dimethylpropyl)-N-{2-[4-(methoxymethyl)-4-methylpiperidin-1-yl]phenyl}benzene-1-sulfonamide] showed an AC50 of 2.01 to 8 µM.

Take `COCC1(C)CCN(c2ccccc2NC(C)c2ccc(S(=O)(=O)N(C)C)cc2)CC1` (centres unmarked) [Compound A-490, 4-[1-({2-[4-(methoxymethyl)-4-methylpiperidin-1-yl]phenyl}amino)ethyl]-N,N-dimethylbenzene-1-sulfonamide]: the AC50 is ≥ 10 µM.

With `COCC1(C)CCN(c2ccccc2C(C)S(=O)(=O)c2ccc(S(=O)(=O)N(C)C)cc2)CC1` (centres unmarked) [Compound A-491, 4-(1-{2-[4-(methoxymethyl)-4-methylpiperidin-1-yl]phenyl}ethanesulfonyl)-N,N-dimethylbenzene-1-sulfonamide], the AC50 is ≤ 2 µM.

With `CN1CCC2(CCN(c3ccccc3NS(=O)(=O)c3ccc(S(C)(=O)=O)cc3)CC2)c2ccccc21` [Compound A-492, 4-methanesulfonyl-N-(2-{1′-methyl-2′,3′-dihydro-1′H-spiro[piperidine-4,4′-quinolin]-1-yl}phenyl)benzene-1-sulfonamide], the AC50 is ≤ 2 µM.

On to `COCC1(C)CCN(c2ccccc2CS(=O)(=O)c2ccc(S(=O)(=O)N(C)C)cc2)CC1` [Compound A-493, 4-({2-[4-(methoxymethyl)-4-methylpiperidin-1-yl]phenyl}methanesulfonyl)-N,N-dimethylbenzene-1-sulfonamide], for which the AC50 is ≤ 2 µM.

Consider `CN(C)S(=O)(=O)c1ccc(S(=O)(=O)Nc2ccccc2N2CCC(COC(C)(C)C)CC2)cc1` [Compound A-494, N4-(2-{4-[(tert-butoxy)methyl]piperidin-1-yl}phenyl)-N1,N1-dimethylbenzene-1,4-disulfonamide], for which the AC50 is ≤ 2 µM.

Molecule `CN(C)S(=O)(=O)c1ccc(S(=O)(=O)Nc2ccccc2N2CCN(CC3CCCO3)CC2)cc1` (centres unmarked) [Compound A-495, N1,N1-dimethyl-N4-(2-{4-[(oxolan-2-yl)methyl]piperazin-1-yl}phenyl)benzene-1,4-disulfonamide] returned an AC50 of 8.01 to 9.99 µM.

Consider `COCCCC1CCN(c2ccccc2NS(=O)(=O)c2ccc(S(=O)(=O)N(C)C)cc2)CC1` [Compound A-496, N4-{2-[4-(3-methoxypropyl)piperidin-1-yl]phenyl}-N1,N1-dimethylbenzene-1,4-disulfonamide], for which the AC50 was ≤ 2 µM.

`CN(C)S(=O)(=O)c1ccc(S(=O)(=O)Nc2ccccc2N2CCCC3(CCCO3)C2)cc1` (centres unmarked) [Compound A-497, N1,N1-dimethyl-N4-(2-{1-oxa-7-azaspiro[4.5]decan-7-yl}phenyl)benzene-1,4-disulfonamide]: the AC50 is ≤ 2 µM.

For the molecule `CCOCCC1CCN(c2ccccc2NS(=O)(=O)c2ccc(S(=O)(=O)N(C)C)cc2)CC1` [Compound A-498, N4-{2-[4-(2-ethoxyethyl)piperidin-1-yl]phenyl}-N1,N1-dimethylbenzene-1,4-disulfonamide], the AC50 is ≤ 2 µM.

Regarding `CN(C)S(=O)(=O)c1ccc(S(=O)(=O)Nc2ccccc2N2CCCC23CCCOC3)cc1` (centres unmarked) [Compound A-499, N1,N1-dimethyl-N4-(2-{7-oxa-1-azaspiro[4.5]decan-1-yl}phenyl)benzene-1,4-disulfonamide], the AC50 was ≤ 2 µM.

Molecule `Cc1cc(C)cc(CS(=O)(=O)Nc2ccccc2N2CCN(C(=O)C(C)(C)C)CC2)c1` [Compound A-500, 1-(3,5-dimethylphenyl)-N-{2-[4-(2,2-dimethylpropanoyl)piperazin-1-yl]phenyl}methanesulfonamide] had an AC50 of 2.01 to 8 µM.

`CC(C)(C)C(=O)N1CCN(c2ccccc2NS(=O)(=O)Cc2ccc3c(c2)COCC3)CC1` [Compound A-501, 1-(3,4-dihydro-1H-2-benzopyran-7-yl)-N-{2-[4-(2,2-dimethylpropanoyl)piperazin-1-yl]phenyl}methanesulfonamide] showed an AC50 of 2.01 to 8 µM.
